Test results published in ChEMBL document CHEMBL1201862, “PubChem BioAssay data set” (2004).
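Cultured in 96-well plates, cells were exposed to test compound for 48 hours across five concentrations. GI50: concentration for 50% inhibition of growth.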 Calls of active or inactive are those of the source. Cut-off read from the data, not from the text of the source: active = GI50 up to about 1.1 µM and inactive = higher.

What was measured:
Test in all cases: growth of human tumour cells (NCI), 48 h
[1] = system: UACC-257
[2] = system: DU-145
[3] = system: UACC-62
[4] = system: HCT-15
[5] = system: NCI-H522
[6] = system: OVCAR-3
[7] = system: SK-MEL-28
[8] = system: HT-29
[9] = system: NCI/ADR-RES
[10] = system: KM12
[11] = system: IGROV-1
[12] = system: LOX IMVI
[13] = system: MOLT-4
[14] = system: BT-549
[15] = system: NCI-H226
[16] = system: SNB-19
[17] = system: NCI-H23
[18] = system: UO-31
[19] = system: PC-3
[20] = system: Hs-578T
[21] = system: HCC 2998
[22] = system: CCRF-CEM
[23] = system: HCT-116
[24] = system: EKVX
[25] = system: SN12C
[26] = system: SR
[27] = system: K562
[28] = system: HL-60
[29] = system: M14
[30] = system: MCF7
[31] = system: OVCAR-5
[32] = system: OVCAR-8
[33] = system: U-251
[34] = system: HOP-62
[35] = system: ACHN
[36] = system: 786-0
[37] = system: SK-MEL-5
[38] = system: A498
[39] = system: SW-620
[40] = system: SF-295
[41] = system: COLO 205
[42] = system: OVCAR-4
[43] = system: HOP-92
[44] = system: SF-268
[45] = system: SF-539
[46] = system: T47D
[47] = system: Malme-3M
[48] = system: A549
[49] = system: MDA-MB-231
[50] = system: CAKI-1
[51] = system: SK-MEL-2
[52] = system: RPMI-8226
[53] = system: SK-OV-3
[54] = system: TK-10
[55] = system: MDA-N
[56] = system: MDA-MB-435
[57] = system: SNB-75
[58] = system: NCI-H460
[59] = system: RXF 393

CCOC(=O)/C=C(/C(=O)OCC)n1cnc2c(=O)[nH]c(NC(C)=O)nc21
GI50 [1]: > 100 µM (inactive)
GI50 [2]: > 100 µM (inactive)
GI50 [3]: > 100 µM (inactive)
GI50 [4]: > 100 µM
GI50 [5]: > 100 µM (inactive)
GI50 [6]: > 100 µM (inactive)
GI50 [7]: > 100 µM (inactive)
GI50 [8]: > 100 µM (inactive)
GI50 [9]: > 100 µM (inactive)
GI50 [10]: > 100 µM (inactive)
GI50 [11]: > 100 µM (inactive)
GI50 [12]: > 100 µM (inactive)
GI50 [13]: > 100 µM (inactive)
GI50 [14]: > 100 µM (inactive)
GI50 [15]: > 100 µM (inactive)
GI50 [16]: > 100 µM (inactive)
GI50 [17]: > 100 µM (inactive)
GI50 [18]: > 100 µM (inactive)
GI50 [19]: > 100 µM (inactive)
GI50 [20]: > 100 µM (inactive)
GI50 [21]: > 100 µM (inactive)
GI50 [22]: > 100 µM (inactive)
GI50 [23]: > 100 µM (inactive)
GI50 [24]: > 100 µM (inactive)
GI50 [25]: > 100 µM (inactive)
GI50 [26]: > 100 µM (inactive)
GI50 [27]: > 100 µM (inactive)
GI50 [28]: > 100 µM (inactive)
GI50 [29]: > 100 µM (inactive)
GI50 [30]: > 100 µM (inactive)
GI50 [31]: > 100 µM (inactive)
GI50 [32]: > 100 µM (inactive)
GI50 [33]: > 100 µM (inactive)
GI50 [34]: > 100 µM (inactive)
GI50 [35]: > 100 µM (inactive)
GI50 [36]: > 100 µM (inactive)
GI50 [37]: > 100 µM (inactive)
GI50 [38]: > 100 µM (inactive)
GI50 [39]: > 100 µM (inactive)
GI50 [40]: > 100 µM (inactive)
GI50 [41]: > 100 µM (inactive)
GI50 [42]: > 100 µM (inactive)
GI50 [43]: > 100 µM (inactive)
GI50 [44]: > 100 µM (inactive)
GI50 [45]: > 100 µM (inactive)
GI50 [46]: > 100 µM (inactive)
GI50 [47]: > 100 µM (inactive)
GI50 [48]: > 100 µM (inactive)
GI50 [49]: > 100 µM (inactive)
GI50 [50]: > 100 µM (inactive)
GI50 [51]: > 100 µM (inactive)
GI50 [52]: > 100 µM (inactive)
GI50 [53]: > 100 µM (inactive)
GI50 [54]: > 100 µM (inactive)
GI50 [55]: > 100 µM (inactive)
GI50 [56]: > 100 µM (inactive)
GI50 [57]: > 100 µM (inactive)
GI50 [58]: > 100 µM (inactive)

Cc1cc(C)nc(NS(=O)(=O)c2ccc(NNC(=O)c3cccc4c(=O)c5ccccc5[nH]c34)cc2)n1
GI50 [1]: > 100 µM (inactive)
GI50 [2]: > 100 µM (inactive)
GI50 [3]: 71.6 µM (inactive)
GI50 [4]: 48.8 µM
GI50 [5]: 33.6 µM (inactive)
GI50 [6]: 37.3 µM (inactive)
GI50 [7]: 29.2 µM (inactive)
GI50 [8]: 66.5 µM (inactive)
GI50 [9]: > 100 µM (inactive)
GI50 [10]: 39.5 µM (inactive)
GI50 [11]: 36.7 µM (inactive)
GI50 [12]: 36 µM (inactive)
GI50 [13]: 49.8 µM (inactive)
GI50 [14]: 53.5 µM (inactive)
GI50 [15]: 51.1 µM (inactive)
GI50 [16]: 88.5 µM (inactive)
GI50 [17]: 63 µM (inactive)
GI50 [18]: 41.6 µM (inactive)
GI50 [19]: 38.4 µM (inactive)
GI50 [20]: 61.7 µM (inactive)
GI50 [21]: 44.9 µM (inactive)
GI50 [22]: 35.4 µM (inactive)
GI50 [23]: 48.9 µM (inactive)
GI50 [59]: 36 µM (inactive)
GI50 [24]: 23.1 µM (inactive)
GI50 [25]: 96.6 µM (inactive)
GI50 [26]: 37.5 µM (inactive)
GI50 [27]: 41 µM (inactive)
GI50 [28]: 41.2 µM (inactive)
GI50 [29]: > 100 µM (inactive)
GI50 [30]: > 100 µM (inactive)
GI50 [31]: 21.5 µM (inactive)
GI50 [32]: 83.4 µM (inactive)
GI50 [33]: 25.2 µM (inactive)
GI50 [34]: 71.8 µM (inactive)
GI50 [35]: 32.4 µM (inactive)
GI50 [36]: > 100 µM (inactive)
GI50 [37]: 52.1 µM (inactive)
GI50 [39]: 83.8 µM (inactive)
GI50 [40]: 80.5 µM (inactive)
GI50 [41]: > 100 µM (inactive)
GI50 [42]: 72.3 µM (inactive)
GI50 [43]: 11.6 µM (inactive)
GI50 [44]: 43.2 µM (inactive)
GI50 [45]: > 100 µM (inactive)
GI50 [46]: 26.1 µM (inactive)
GI50 [47]: 49.9 µM (inactive)
GI50 [48]: > 100 µM (inactive)
GI50 [49]: 37.6 µM (inactive)
GI50 [50]: > 100 µM (inactive)
GI50 [51]: 0.0493 µM (active)
GI50 [52]: 57.5 µM (inactive)
GI50 [53]: 55.5 µM (inactive)
GI50 [54]: > 100 µM (inactive)
GI50 [55]: 75.9 µM (inactive)
GI50 [56]: 61.8 µM (inactive)
GI50 [57]: 19.5 µM (inactive)
GI50 [58]: 67.6 µM (inactive)
